By EC50 is commonly meant the concentration needed to bring the measured effect to its halfway point. A higher EC50 goes with a need for much substance.

Counter-ions that a name gives are not always drawn.

The text below walks through data of patent US20250171457A1, “NITROGEN-CONTAINING HETEROCYCLIC COMPOUND HAVING NRF2 ACTIVATION EFFECT” (CHUGAI SEIYAKU KABUSHIKI KAISHA, priority 2022, published 2025).

The experiment has as its system Nrf2 transcriptional activity (pARE-Luc reporter) in HepG2 cells. Briefly: In vitro Nrf2 transcriptional activity measurement by ARE-dependent reporter assay in HepG2 cell. The conditions noted are these: Homo sapiens; HepG2 cells transfected with pARE-Luc, 4 hours at 37° C.; luciferase activity of Example 1-54 or Example 17-23 at 3.75 μM defined as 100%. Format: cell-based, human. The method, boiled down:
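HepG2 cells transfected with pGL4.37 (pARE-Luc), replated onto compound and incubated 4 h at 37° C; luciferase read by Bright-Glo luminescence. Response normalized to 100% set by a reference compound at 3.75 μM; EC50 from dose-response curve.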
Background: A reporter such as luciferase makes a cellular process visible.
Turning to `Cn1nnc2c(N3CC4(C3)OCC(C)(C)CO4)cc(Cl)c(C(=O)N3COc4c(cccc4-c4cc(N5C6CCC5COC6)c(C(=O)O)cc4F)C3)c21` [Compound 19-12, 4-[3-[5-Chloro-7-(7,7-dimethyl-5,9-dioxa-2-azaspiro[3.5]nonan-2-yl)-3-methylbenzotriazole-4-carbonyl]-2,4-dihydro-1,3-benzoxazin-8-yl]-5-fluoro-2-(3-oxa-8-azabicyclo[3.2.1]octan-8-yl)benzoic acid], the EC50 worked out at 2.5 nM.

Compound `Cn1nc2c(N3CC4(C3)OCC(C)(C)CO4)cc(Cl)c(C(=O)N3COc4c(cccc4-c4cc(N5C6CCC5COC6)c(C(=O)O)cc4F)C3)c2n1` [Compound 19-13, 4-[3-[5-Chloro-7-(7,7-dimethyl-5,9-dioxa-2-azaspiro[3.5]nonan-2-yl)-2-methylbenzotriazole-4-carbonyl]-2,4-dihydro-1,3-benzoxazin-8-yl]-5-fluoro-2-(3-oxa-8-azabicyclo[3.2.1]octan-8-yl)benzoic acid] came in with an EC50 of 2.1 nM.

`Cn1nnc2c(C(=O)N3COc4c(cccc4-c4cc(N5C6CCC5COC6)c(C(=O)O)cc4F)C3)c(Cl)cc(N3CC4(C3)OCC(C)(C)CO4)c21` [Compound 19-14, 4-[3-[5-Chloro-7-(7,7-dimethyl-5,9-dioxa-2-azaspiro[3.5]nonan-2-yl)-1-methylbenzotriazole-4-carbonyl]-2,4-dihydro-1,3-benzoxazin-8-yl]-5-fluoro-2-(3-oxa-8-azabicyclo[3.2.1]octan-8-yl)benzoic acid] came in with an EC50 of 4.1 nM.

On to `COC1CC2(C1)CN(c1cc(Cl)c(C(=O)N3COc4c(cccc4-c4cc(N5C6CCC5COC6)c(C(=O)O)cc4F)C3)c3c1nc(C)n3C)C2` [Compound 19-15, 4-[3-[5-Chloro-7-(6-methoxy-2-azaspiro[3.3]heptan-2-yl)-2,3-dimethylbenzimidazole-4-carbonyl]-2,4-dihydro-1,3-benzoxazin-8-yl]-5-fluoro-2-(3-oxa-8-azabicyclo[3.2.1]octan-8-yl)benzoic acid], for which the EC50 turned out to be 2.3 nM.

Consider `COC1CC2(C1)CN(c1cc(Cl)c(C(=O)N3COc4c(cccc4-c4cc(N5C6CCC5COC6)c(C(=O)O)cc4F)C3)c3nc(C)n(C)c13)C2` [Compound 19-16, 4-[3-[5-Chloro-7-(6-methoxy-2-azaspiro[3.3]heptan-2-yl)-1,2-dimethylbenzimidazole-4-carbonyl]-2,4-dihydro-1,3-benzoxazin-8-yl]-5-fluoro-2-(3-oxa-8-azabicyclo[3.2.1]octan-8-yl)benzoic acid], for which the response was half-maximal at 17 nM (EC50).

With `CN1CCC2(CC1)CN(c1cc(Cl)c(C(=O)N3COc4c(cccc4-c4cc(N5C6CCC5COC6)c(C(=O)O)cc4F)C3)c(Cl)c1)C2` [Compound 19-17, 4-[3-[2,6-Dichloro-4-(7-methyl-2,7-diazaspiro[3.5]nonan-2-yl)benzoyl]-2,4-dihydro-1,3-benzoxazin-8-yl]-5-fluoro-2-(3-oxa-8-azabicyclo[3.2.1]octan-8-yl)benzoic acid], the response was half-maximal at 6.1 nM (EC50).

`CC[C@@H]1CN(C)CCN1c1cc(Cl)c(C(=O)N2COc3c(cccc3-c3cc(N4C5CCC4COC5)c(C(=O)O)cc3F)C2)c(Cl)c1` [Compound 19-18, 4-[3-[2,6-Dichloro-4-[(2R)-2-ethyl-4-methylpiperazin-1-yl]benzoyl]-2,4-dihydro-1,3-benzoxazin-8-yl]-5-fluoro-2-(3-oxa-8-azabicyclo[3.2.1]octan-8-yl)benzoic acid] returned an EC50 of 1.3 nM.

In turn, `COC[C@@H]1CN(C)CCN1c1cc(Cl)c(C(=O)N2COc3c(cccc3-c3cc(N4C5CCC4COC5)c(C(=O)O)cc3F)C2)c(Cl)c1` [Compound 19-19, 4-[3-[2,6-Dichloro-4-[(2S)-2-(methoxymethyl)-4-methylpiperazin-1-yl]benzoyl]-2,4-dihydro-1,3-benzoxazin-8-yl]-5-fluoro-2-(3-oxa-8-azabicyclo[3.2.1]octan-8-yl)benzoic acid] yielded an EC50 of 2.6 nM.

For `Cn1cc(-c2cc(Cl)c(C(=O)N3COc4c(cccc4-c4cc(N5C6COCC5C6)c(C(=O)O)cc4F)C3)c(Cl)c2)cn1` [Compound 20-1, 4-[3-[2,6-Dichloro-4-(1-methylpyrazol-4-yl)benzoyl]-2,4-dihydro-1,3-benzoxazin-8-yl]-5-fluoro-2-(3-oxa-6-azabicyclo[3.1.1]heptan-6-yl)benzoic acid N,N-diethylethanamine salt], the EC50 was 850 nM.

`CN1C[C@H]2CC[C@@H]1CN2c1cc(Cl)c(C(=O)N2COc3c(cccc3-c3cc(N4C5CCC4COC5)c(C(=O)O)cc3F)C2)c(Cl)c1` [Compound 20-2, 4-[3-[2,6-Dichloro-4-[(1R,4R)-5-methyl-2,5-diazabicyclo[2.2.2]octan-2-yl]benzoyl]-2,4-dihydro-1,3-benzoxazin-8-yl]-5-fluoro-2-(3-oxa-8-azabicyclo[3.2.1]octan-8-yl)benzoic acid]: the EC50 worked out at 24 nM.

`CN1C[C@@H]2CC[C@H]1CN2c1cc(Cl)c(C(=O)N2COc3c(cccc3-c3cc(N4C5CCC4COC5)c(C(=O)O)cc3F)C2)c(Cl)c1` [Compound 20-3, 4-[3-[2,6-Dichloro-4-[(1S,4S)-5-methyl-2,5-diazabicyclo[2.2.2]octan-2-yl]benzoyl]-2,4-dihydro-1,3-benzoxazin-8-yl]-5-fluoro-2-(3-oxa-8-azabicyclo[3.2.1]octan-8-yl)benzoic acid] came in with an EC50 of 40 nM.

`CN1C2CC1CN(c1cc(Cl)c(C(=O)N3COc4c(cccc4-c4cc(N5C6CCC5COC6)c(C(=O)O)cc4F)C3)c(Cl)c1)C2` [Compound 20-4, 4-[3-[2,6-Dichloro-4-(6-methyl-3,6-diazabicyclo[3.1.1]heptan-3-yl)benzoyl]-2,4-dihydro-1,3-benzoxazin-8-yl]-5-fluoro-2-(3-oxa-8-azabicyclo[3.2.1]octan-8-yl)benzoic acid] came in with an EC50 of 150 nM.

For `O=C(O)c1cc(F)c(-c2cccc3c2OCN(C(=O)c2c(Cl)cc(N4CC5CC(C4)N5C4COC4)cc2Cl)C3)cc1N1C2CCC1COC2` [Compound 20-5, 4-[3-[2,6-Dichloro-4-[6-(oxetan-3-yl)-3,6-diazabicyclo[3.1.1]heptan-3-yl]benzoyl]-2,4-dihydro-1,3-benzoxazin-8-yl]-5-fluoro-2-(3-oxa-8-azabicyclo[3.2.1]octan-8-yl)benzoic acid], the EC50 was 75 nM.

Compound `O=C(O)c1cc(F)c(-c2cccc3c2OCN(C(=O)c2c(Cl)cc(N4C5CC4CN(C4COC4)C5)cc2Cl)C3)cc1N1C2CCC1COC2` [Compound 20-6, 4-[3-[2,6-Dichloro-4-[3-(oxetan-3-yl)-3,6-diazabicyclo[3.1.1]heptan-6-yl]benzoyl]-2,4-dihydro-1,3-benzoxazin-8-yl]-5-fluoro-2-(3-oxa-8-azabicyclo[3.2.1]octan-8-yl)benzoic acid] showed an EC50 of 48 nM.

For `COCCN1C[C@@H]2C[C@H]1CN2c1cc(Cl)c(C(=O)N2COc3c(cccc3-c3cc(N4C5CCC4COC5)c(C(=O)O)cc3F)C2)c(Cl)c1` [Compound 20-7, 4-[3-[2,6-Dichloro-4-[(1S,4S)-5-(2-methoxyethyl)-2,5-diazabicyclo[2.2.1]heptan-2-yl]benzoyl]-2,4-dihydro-1,3-benzoxazin-8-yl]-5-fluoro-2-(3-oxa-8-azabicyclo[3.2.1]octan-8-yl)benzoic acid], the half-maximal effective concentration (EC50) was found to be 14 nM.

Turning to `O=C(O)c1cc(F)c(-c2cccc3c2OCN(C(=O)c2c(Cl)cc(N4CCNCC4)cc2Cl)C3)cc1N1C2CCC1COC2` [Compound 20-8, 4-[3-(2,6-Dichloro-4-piperazin-1-ylbenzoyl)-2,4-dihydro-1,3-benzoxazin-8-yl]-5-fluoro-2-(3-oxa-8-azabicyclo[3.2.1]octan-8-yl)benzoic acid], the EC50 worked out at 18 nM.

Regarding `CN1CCN(c2cc(Cl)c(C(=O)N3COc4c(cccc4-c4cc(N5C6CCC5COC6)c(C(=O)O)cc4F)C3)c(Cl)c2)CC12CC2` [Compound 20-9, 4-[3-[2,6-Dichloro-4-(4-methyl-4,7-diazaspiro[2.5]octan-7-yl)benzoyl]-2,4-dihydro-1,3-benzoxazin-8-yl]-5-fluoro-2-(3-oxa-8-azabicyclo[3.2.1]octan-8-yl)benzoic acid], a half-maximal response (EC50) required 14 nM.

In the case of `Cc1cnn(C2CN(c3cc(Cl)c(C(=O)N4COc5c(cccc5-c5cc(N6C7CCC6COC7)c(C(=O)O)cc5F)C4)c(Cl)c3)C2)c1` [Compound 20-13, 4-[3-[2,6-Dichloro-4-[3-(4-methylpyrazol-1-yl)azetidin-1-yl]benzoyl]-2,4-dihydro-1,3-benzoxazin-8-yl]-5-fluoro-2-(3-oxa-8-azabicyclo[3.2.1]octan-8-yl)benzoic acid], the EC50 came to 5.5 nM.
